In ChEMBL document CHEMBL5550154, “Novel biaryloxazolidinone derivatives with broad-spectrum antibacterial activity, favorable drug-like profiles and in vivo efficacy against linezolid-resistant Staphylococcusaureus” (Eur J Med Chem, 2024):
Converted amounts (≈) assume the structure as drawn.

Columns and labels:
Staphylococcus aureus [1] = assay: Antibacterial activity against Staphylococcus aureus ATCC29213 assessed as inhibition of bacterial growth incubated for 16 to 20 hrs by CLSI based broth liquid microdilution method; type: functional; details: time 16-20 hrs
Staphylococcus aureus [2] = assay: Antibacterial activity against methicillin-resistant Staphylococcus aureus assessed as inhibition of bacterial growth incubated for 16 to 20 hrs by CLSI based broth liquid microdilution method; type: functional; details: time 16-20 hrs
Staphylococcus aureus [3] = assay: Antibacterial activity against linezolid-resistant Staphylococcus aureus assessed as inhibition of bacterial growth incubated for 16 to 20 hrs by CLSI based broth liquid microdilution method; type: functional; details: time 16-20 hrs
Enterococcus faecalis = assay: Antibacterial activity against linezolid-resistant Enterococcus faecalis assessed as inhibition of bacterial growth incubated for 16 to 20 hrs by CLSI based broth liquid microdilution method; type: functional; details: time 16-20 hrs
[4] = Microsomal stability in human liver microsomes assessed as elimination half life pretreated with compound upto 60 mins followed by NADPH addition and measured after 60 mins by LC/MS analysis; type: ADME, Microsome; details: liver microsomes, time < 120 min, read-out: beta t1/2
[5] = Microsomal stability in human liver microsomes assessed as intrinsic clearance pretreated with compound upto 60 mins followed by NADPH addition and measured after 60 mins by LC/MS analysis; type: ADME, Microsome; details: time < 120 min, read-out: CLH
[6] = Microsomal stability in monkey liver microsomes assessed as intrinsic clearance pretreated with compound upto 60 mins followed by NADPH addition and measured after 60 mins by LC/MS analysis; type: ADME, Macaca mulatta, Microsome; details: rhesus monkey, time < 120 min, read-out: CLH
[7] = Microsomal stability in dog liver microsomes assessed as intrinsic clearance pretreated with compound upto 60 mins followed by NADPH addition and measured after 60 mins by LC/MS analysis; type: ADME, Canis lupus familiaris, Microsome; details: liver microsomes, time < 120 min, read-out: CLH
[8] = Microsomal stability in rat liver microsomes assessed as intrinsic clearance pretreated with compound upto 60 mins followed by NADPH addition and measured after 60 mins by LC/MS analysis; type: ADME, Microsome; details: time < 120 min, read-out: CLH
[9] = Microsomal stability in mouse liver microsomes assessed as intrinsic clearance pretreated with compound upto 60 mins followed by NADPH addition and measured after 60 mins by LC/MS analysis; type: ADME, Microsome; details: time < 120 min, read-out: CLH
[10] = Microsomal stability in monkey liver microsomes assessed as parent compound remaining pretreated with compound upto 60 mins followed by NADPH addition and measured after 60 mins by LC/MS analysis; type: ADME, Macaca mulatta, Microsome; details: rhesus monkey, time < 120 min, read-out: Stability
[11] = Microsomal stability in rat liver microsomes assessed as parent compound remaining pretreated with compound upto 60 mins followed by NADPH addition and measured after 60 mins by LC/MS analysis; type: ADME, Microsome; details: liver microsomes, time < 120 min, read-out: Stability
[12] = Microsomal stability in mouse liver microsomes assessed as parent compound remaining pretreated with compound upto 60 mins followed by NADPH addition and measured after 60 mins by LC/MS analysis; type: ADME, Microsome; details: liver microsomes, time < 120 min, read-out: Stability
[13] = Stability in rat plasma assessed as parent compound remaining at 37 degreeC measured upto 60 mins by HPLC analysis; type: ADME, cell-free; details: read-out: Stability
[14] = Stability in monkey plasma assessed as parent compound remaining at 25 degreeC measured upto 60 mins by HPLC analysis; type: ADME, cell-free, Macaca mulatta; details: rhesus monkey, read-out: Stability
[15] = Stability in mouse plasma assessed as parent compound remaining at 25 degreeC measured upto 60 mins by HPLC analysis; type: ADME, cell-free
[16] = Plasma protein binding in human incubated for 6 hrs by LC-MS/MS analysis; type: ADME, cell-free; details: read-out: PPB (converted)
[17] = Plasma protein binding in monkey incubated for 6 hrs by LC-MS/MS analysis; type: ADME, cell-free, Macaca mulatta; details: rhesus monkey, read-out: PPB (converted)
[18] = Plasma protein binding in dog incubated for 6 hrs by LC-MS/MS analysis; type: ADME, cell-free, Canis lupus familiaris; details: read-out: PPB (converted)
[19] = Plasma protein binding in rat incubated for 6 hrs by LC-MS/MS analysis; type: ADME, cell-free; details: read-out: PPB (converted)
[20] = Aqueous solubility of compound at pH 2 by LC-MS/MS analysis; type: physicochemical; details: buffer
[21] = Aqueous solubility of compound at pH 7.4 by LC-MS/MS analysis; type: physicochemical; details: buffer
[22] = AUC (0 to t) in Sprague-Dawley rat at 1 mg/kg, iv measured upto 24 hrs by LC-MS analysis; type: ADME, organism-based; details: in vivo
[23] = Apparent volume of distribution in Sprague-Dawley rat at 1 mg/kg, iv measured upto 24 hrs by LC-MS analysis; type: ADME, organism-based; details: in vivo, read-out: Vz
[24] = Elimination half life in Sprague-Dawley rat at 10 mg/kg, IG measured upto 24 hrs by LC-MS analysis; type: ADME, organism-based; details: in vivo, po, read-out: beta t1/2 (converted)
[25] = Tmax in Sprague-Dawley rat at 10 mg/kg, IG measured upto 24 hrs by LC-MS analysis; type: ADME, organism-based; details: in vivo, po
[26] = Cmax in Sprague-Dawley rat at 10 mg/kg, IG measured upto 24 hrs by LC-MS analysis; type: ADME, organism-based; details: in vivo, po
[27] = AUC (0 to t) in Sprague-Dawley rat at 10 mg/kg, IG measured upto 24 hrs by LC-MS analysis; type: ADME, organism-based; details: in vivo, po
[28] = Bioavailability in Sprague-Dawley rat at 10 mg/kg, IG measured upto 24 hrs by LC-MS analysis; type: ADME, organism-based; details: in vivo, po
[29] = Half life in ICR mouse at 1 mg/kg, iv measured upto 24 hrs by LC-MS analysis; type: ADME, organism-based; details: in vivo
[30] = AUC (0 to t) in ICR mouse at 1 mg/kg, iv measured upto 24 hrs by LC-MS analysis; type: ADME, organism-based; details: in vivo
[31] = Clearance in ICR mouse at 1 mg/kg, iv measured upto 24 hrs by LC-MS analysis; type: ADME, organism-based; details: in vivo
[32] = Volume of distribution at steady state in ICR mouse at 1 mg/kg, iv measured upto 24 hrs by LC-MS analysis; type: ADME, organism-based; details: in vivo, read-out: Vdss
[33] = Half life in ICR mouse at 10 mg/kg, IG measured upto 24 hrs by LC-MS analysis; type: ADME, organism-based; details: in vivo, po
[34] = Tmax in ICR mouse at 10 mg/kg, IG measured upto 24 hrs by LC-MS analysis; type: ADME, organism-based; details: in vivo, po
[35] = Cmax in ICR mouse at 10 mg/kg, IG measured upto 24 hrs by LC-MS analysis; type: ADME, organism-based; details: in vivo, po
[36] = AUC (0 to t) in ICR mouse at 10 mg/kg, IG measured upto 24 hrs by LC-MS analysis; type: ADME, organism-based; details: in vivo, po
[37] = Cytotoxicity against human HepG2 cells incubated for 48 hrs by MTT assay; type: toxicity, cell-based
Cytochrome P450 2C9 = Cytochrome P450 2C9 (Homo sapiens, UniProt P11712); assay: Inhibition of CYP2C9 in human liver microsomes using […] preincubated with compound for 5 mins followed by substrate addition and measured after 120 mins in presence of NADPH by LC-MS/MS analysis; type: ADME, Microsome
Chain of Cytochrome P450 2C9 (P11712 whole entry): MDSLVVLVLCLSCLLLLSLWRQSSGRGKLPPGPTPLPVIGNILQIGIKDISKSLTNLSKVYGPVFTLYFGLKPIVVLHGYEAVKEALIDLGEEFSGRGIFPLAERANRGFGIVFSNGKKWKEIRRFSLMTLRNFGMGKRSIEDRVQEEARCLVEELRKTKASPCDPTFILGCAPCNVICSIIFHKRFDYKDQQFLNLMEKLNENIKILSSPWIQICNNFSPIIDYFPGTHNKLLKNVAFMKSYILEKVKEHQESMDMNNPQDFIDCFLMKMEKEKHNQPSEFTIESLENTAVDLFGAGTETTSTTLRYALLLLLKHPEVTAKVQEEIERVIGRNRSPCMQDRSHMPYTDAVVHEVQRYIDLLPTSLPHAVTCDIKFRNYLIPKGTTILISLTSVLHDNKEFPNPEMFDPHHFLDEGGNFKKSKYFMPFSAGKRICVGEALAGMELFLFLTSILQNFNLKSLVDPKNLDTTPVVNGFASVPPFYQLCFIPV

Cytochrome P450 2C19 = Cytochrome P450 2C19 (Homo sapiens, UniProt P33261); assay: Inhibition of CYP2C19 in human liver microsomes […] preincubated with compound for 5 mins followed by substrate addition and measured after 120 mins in presence of NADPH by LC-MS/MS analysis; type: ADME, Microsome
Chain of Cytochrome P450 2C19 (P33261 whole entry): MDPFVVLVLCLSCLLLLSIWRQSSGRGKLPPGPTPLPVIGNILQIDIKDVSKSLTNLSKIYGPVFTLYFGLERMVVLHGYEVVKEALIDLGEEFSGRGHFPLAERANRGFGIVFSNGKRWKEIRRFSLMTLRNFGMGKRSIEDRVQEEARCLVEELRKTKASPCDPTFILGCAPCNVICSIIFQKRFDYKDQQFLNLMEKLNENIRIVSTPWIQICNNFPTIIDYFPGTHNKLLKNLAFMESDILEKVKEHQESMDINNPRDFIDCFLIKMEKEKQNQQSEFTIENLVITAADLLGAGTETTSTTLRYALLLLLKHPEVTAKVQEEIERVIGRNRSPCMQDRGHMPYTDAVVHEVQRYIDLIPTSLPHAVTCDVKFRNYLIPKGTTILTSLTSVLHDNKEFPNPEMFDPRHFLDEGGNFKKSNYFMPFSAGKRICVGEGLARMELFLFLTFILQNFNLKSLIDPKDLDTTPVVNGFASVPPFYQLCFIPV

Cytochrome P450 2D6 = Cytochrome P450 2D6 (Homo sapiens, UniProt P10635); assay: Inhibition of CYP2D6 in human liver microsomes […] preincubated with compound for 5 mins followed by substrate addition and measured after 120 mins in presence of NADPH by LC-MS/MS analysis; type: ADME, Microsome
Chain of Cytochrome P450 2D6 (P10635 whole entry): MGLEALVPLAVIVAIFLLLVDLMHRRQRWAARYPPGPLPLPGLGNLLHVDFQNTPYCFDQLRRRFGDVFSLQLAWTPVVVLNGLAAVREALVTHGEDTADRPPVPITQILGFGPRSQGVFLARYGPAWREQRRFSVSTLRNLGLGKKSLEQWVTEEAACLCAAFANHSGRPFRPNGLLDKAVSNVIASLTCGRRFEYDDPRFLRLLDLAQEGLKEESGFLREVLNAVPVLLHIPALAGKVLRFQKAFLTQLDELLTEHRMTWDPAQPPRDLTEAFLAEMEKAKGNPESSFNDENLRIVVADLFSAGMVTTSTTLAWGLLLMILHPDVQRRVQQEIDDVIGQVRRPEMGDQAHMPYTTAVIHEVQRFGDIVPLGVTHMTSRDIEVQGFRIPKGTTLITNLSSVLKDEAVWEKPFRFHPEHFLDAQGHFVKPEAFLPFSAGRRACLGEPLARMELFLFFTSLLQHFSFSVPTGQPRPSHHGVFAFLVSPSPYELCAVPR

O=C1O[C@@H](CO)CN1c1ccc(-c2ccc(/C=N/N3CCOCC3)nc2)c(F)c1
MIC (Staphylococcus aureus [1]): 0.06 µg/mL (≈ 0.15 µM) | MIC (Staphylococcus aureus [2]): 0.125 µg/mL (≈ 0.312 µM) | MIC (Staphylococcus aureus [3]): 0.125 µg/mL (≈ 0.312 µM) | MIC (Enterococcus faecalis): 0.5 µg/mL (≈ 1.25 µM) | half-life [4]: 1.83 h | microsomal CLint [5]: 12.7 µL/min/mg | microsomal CLint [6]: 3.25 µL/min/mg | microsomal CLint [7]: 1.51 µL/min/mg | microsomal CLint [8]: 2.3 µL/min/mg | microsomal CLint [9]: 2.02 µL/min/mg | remaining at 2 h [10]: 93.3% | remaining at 2 h [11]: 93.4% | remaining at 2 h [12]: 96% | remaining at 1 h [13]: 103% | remaining at 1 h [14]: 113% | Stability ([15]; 1 h): 125% | fraction unbound at 6 h [16]: 0.144 | fraction unbound at 6 h [17]: 0.215 | fraction unbound at 6 h [18]: 0.169 | fraction unbound at 6 h [19]: 0.041 | solubility [20]: 52.6 µM (≈ 21.1 µg/mL) | solubility [21]: 10.9 µM (≈ 4.36 µg/mL) | AUC(0-t) at 24 h [22]: 1220 ng·h/mL | Vd [23]: 0.81 L/kg | half-life [24]: 1.49 h | Tmax [25]: 1.33 h | Cmax [26]: 2320 ng/mL | AUC(0-t) at 24 h [27]: 8310 ng·h/mL | bioavailability [28]: 68.1% | half-life [29]: 2.1 h | AUC(0-t) at 24 h [30]: 2640 ng·h/mL | clearance [31]: 5.9 mL/min/kg | Vd [32]: 0.87 L/kg | half-life [33]: 2.85 h | Tmax [34]: 2 h | Cmax [35]: 4810 ng/mL | AUC(0-t) at 24 h [36]: 29300 ng·h/mL | IC50 at 48 h [37]: > 30 µM | IC50 (Cytochrome P450 2C9): > 30 µM | IC50 (Cytochrome P450 2C19): > 30 µM | IC50 (Cytochrome P450 2D6): > 30 µM

CC(=O)NC[C@H]1CN(c2ccc(N3CCOCC3)c(F)c2)C(=O)O1 [LINEZOLID]
microsomal CLint [6]: 0.446 µL/min/mg | microsomal CLint [7]: 0.667 µL/min/mg | microsomal CLint [8]: 2.22 µL/min/mg | microsomal CLint [9]: 2.18 µL/min/mg | remaining at 2 h [10]: 99.4% | remaining at 2 h [11]: 93.9% | remaining at 2 h [12]: 92.3% | remaining at 1 h [13]: 107% | remaining at 1 h [14]: 99.4% | remaining at 1 h ([15]; read-out: Stability): 110% | fraction unbound at 6 h [16]: 0.716 | fraction unbound at 6 h [17]: 0.745 | fraction unbound at 6 h [18]: 0.829 | fraction unbound at 6 h [19]: 0.639 | AUC(0-t) at 24 h [22]: 719 ng·h/mL | Vd [23]: 0.75 L/kg | half-life [24]: 1.08 h | Tmax [25]: 0.5 h | Cmax [26]: 4830 ng/mL | AUC(0-t) at 24 h [27]: 13000 ng·h/mL | half-life [29]: 0.39 h | AUC(0-t) at 24 h [30]: 794 ng·h/mL | clearance [31]: 20.6 mL/min/kg | Vd [32]: 0.56 L/kg | half-life [33]: 0.8 h | Tmax [34]: 0.25 h | Cmax [35]: 10000 ng/mL | AUC(0-t) at 24 h [36]: 24000 ng·h/mL | IC50 at 48 h [37]: > 30 µM | IC50 (Cytochrome P450 2C9): > 30 µM | IC50 (Cytochrome P450 2C19): > 30 µM | IC50 (Cytochrome P450 2D6): > 30 µM
